MIC data for six compounds are collected here from ChEMBL document CHEMBL5370535, “Thiazolyl hydrazineylidenyl indolones as unique potential multitargeting broad-spectrum antimicrobial agents” (Eur J Med Chem, 2023).

What all share (format): functional
Experiment [1] concerns Staphylococcus aureus. The experiment in a line: Antibacterial activity against methicillin-resistant Staphylococcus aureus assessed as bacterial growth inhibition incubated for 24 hrs by CLSI based two serial dilution assay.
Another experiment concerns Enterococcus faecalis. Nature of the experiment: Antibacterial activity against Enterococcus faecalis assessed as bacterial growth inhibition incubated for 24 hrs by CLSI based two serial dilution assay.
In experiment [2] the test system is Staphylococcus aureus. The experiment in a line: Antibacterial activity against Staphylococcus aureus assessed as bacterial growth inhibition incubated for 24 hrs by CLSI based two serial dilution assay.
In experiment [3] the test system is Staphylococcus aureus. Nature of the experiment: Antibacterial activity against Staphylococcus aureus 25923 assessed as bacterial growth inhibition incubated for 24 hrs by CLSI based two serial dilution assay.
Experiment [4] relates to Staphylococcus aureus. Nature of the experiment: Antibacterial activity against Staphylococcus aureus 29213 assessed as bacterial growth inhibition incubated for 24 hrs by CLSI based two serial dilution assay.
The next experiment concerns Klebsiella pneumoniae. The experiment in a line: Antibacterial activity against Klebsiella pneumoniae assessed as bacterial growth inhibition incubated for 24 hrs by CLSI based two serial dilution assay.
The test system of experiment [5] is Escherichia coli. The experiment in a line: Antibacterial activity against Escherichia coli assessed as bacterial growth inhibition incubated for 24 hrs by CLSI based two serial dilution assay.
Experiment [6] has as its system Escherichia coli. Nature of the experiment: Antibacterial activity against Escherichia coli 25922 assessed as bacterial growth inhibition incubated for 24 hrs by CLSI based two serial dilution assay.
Experiment [7] has as its system Pseudomonas aeruginosa. The experiment in a line: Antibacterial activity against Pseudomonas aeruginosa assessed as bacterial growth inhibition incubated for 24 hrs by CLSI based two serial dilution assay.
In experiment [8] the test system is Pseudomonas aeruginosa. Nature of the experiment: Antibacterial activity against Pseudomonas aeruginosa ATCC 27853 assessed as bacterial growth inhibition incubated for 24 hrs by CLSI based two serial dilution assay.
Another experiment has as its system Acinetobacter baumannii. The experiment in a line: Antibacterial activity against Acinetobacter baumannii assessed as bacterial growth inhibition incubated for 24 hrs by CLSI based two serial dilution assay.
In experiment [9] the test system is Candida albicans. Nature of the experiment: Antifungal activity against Candida albicans assessed as inhibition of fungal growth incubated for 24 hrs by CLSI based two serial dilution assay.
Experiment [10] deals with Candida albicans. Nature of the experiment: Antifungal activity against Candida albicans ATCC 90023 assessed as inhibition of fungal growth incubated for 24 hrs by CLSI based two serial dilution assay.
The subject of another experiment is Candida tropicalis. The experiment in a line: Antifungal activity against Candida tropicalis assessed as inhibition of fungal growth incubated for 24 hrs by CLSI based two serial dilution assay.
The next experiment concerns Candida parapsilosis. Nature of the experiment: Antifungal activity against Candida parapsilosis ATCC 22019 assessed as inhibition of fungal growth incubated for 24 hrs by CLSI based two serial dilution assay. The following applies: Lodderomyces parapsilosis.
A further experiment relates to Aspergillus fumigatus. Nature of the experiment: Antifungal activity against Aspergillus fumigatus assessed as inhibition of fungal growth incubated for 24 hrs by CLSI based two serial dilution assay.

≈ marks a conversion by molar mass, not a printed value.

The term MIC denotes the smallest concentration in the dilution series that meets the test's criterion for growth inhibition.

Consider `CCCCN1C(=O)/C(=N\Nc2nccs2)c2cc(Cl)ccc21`, for which the MIC with Staphylococcus aureus [1] amounted to 1 µM (≈ 0.335 µg/mL); in the experiment with Enterococcus faecalis, 32 µM (≈ 10.7 µg/mL); with Staphylococcus aureus [2] it was 1 µM (≈ 0.335 µg/mL); in the experiment on Staphylococcus aureus [3], 1 µM (≈ 0.335 µg/mL); in the experiment on Staphylococcus aureus [4] it was 1 µM (≈ 0.335 µg/mL); in the experiment with Klebsiella pneumoniae, 0.5 µM (≈ 0.167 µg/mL). Moreover, the MIC stood at 1 µM (≈ 0.335 µg/mL) with Escherichia coli [5]; 0.5 µM (≈ 0.167 µg/mL) in the experiment on Escherichia coli [6]; 0.5 µM (≈ 0.167 µg/mL) in the experiment on Pseudomonas aeruginosa [7]; 0.5 µM (≈ 0.167 µg/mL) in the experiment with Pseudomonas aeruginosa [8]; 1 µM (≈ 0.335 µg/mL) in the experiment with Acinetobacter baumannii; 0.5 µM (≈ 0.167 µg/mL) in the experiment on Candida albicans [9]. Also, the MIC in the experiment with Candida albicans [10] came to 2 µM (≈ 0.67 µg/mL); in the experiment with Candida tropicalis, 16 µM (≈ 5.36 µg/mL); with Candida parapsilosis, 0.5 µM (≈ 0.167 µg/mL); in the experiment with Aspergillus fumigatus, 4 µM (≈ 1.34 µg/mL).

As for `CCCCCCCCCCCCN1C(=O)/C(=N\Nc2nccs2)c2ccccc21`, the MIC with Staphylococcus aureus [1] amounted to 128 µM (≈ 52.8 µg/mL); with Enterococcus faecalis, 4 µM (≈ 1.65 µg/mL); with Staphylococcus aureus [2], 32 µM (≈ 13.2 µg/mL); in the experiment on Staphylococcus aureus [3], 4 µM (≈ 1.65 µg/mL); in the experiment with Staphylococcus aureus [4] it was 4 µM (≈ 1.65 µg/mL); with Klebsiella pneumoniae, 32 µM (≈ 13.2 µg/mL). The MIC was 64 µM (≈ 26.4 µg/mL) in the experiment with Escherichia coli [5]; 32 µM (≈ 13.2 µg/mL) in the experiment with Escherichia coli [6]; 16 µM (≈ 6.6 µg/mL) with Pseudomonas aeruginosa [7]; 16 µM (≈ 6.6 µg/mL) in the experiment on Pseudomonas aeruginosa [8]; 64 µM (≈ 26.4 µg/mL) in the experiment with Acinetobacter baumannii; 32 µM (≈ 13.2 µg/mL) in the experiment on Candida albicans [9]. Besides, the MIC in the experiment on Candida albicans [10] came to 128 µM (≈ 52.8 µg/mL); with Candida tropicalis, 16 µM (≈ 6.6 µg/mL); with Candida parapsilosis, 64 µM (≈ 26.4 µg/mL); with Aspergillus fumigatus, 32 µM (≈ 13.2 µg/mL).

For the compound `CCCN1C(=O)/C(=N\Nc2nccs2)c2ccccc21`, the MIC was 32 µM (≈ 9.16 µg/mL) with Staphylococcus aureus [1]; 16 µM (≈ 4.58 µg/mL) in the experiment on Enterococcus faecalis; 16 µM (≈ 4.58 µg/mL) in the experiment on Staphylococcus aureus [2]; 4 µM (≈ 1.15 µg/mL) with Staphylococcus aureus [3]; 4 µM (≈ 1.15 µg/mL) in the experiment with Staphylococcus aureus [4]; 32 µM (≈ 9.16 µg/mL) with Klebsiella pneumoniae. Also, the minimal inhibitory concentration (MIC) stood at 128 µM (≈ 36.7 µg/mL) in the experiment with Escherichia coli [5]; 4 µM (≈ 1.15 µg/mL) in the experiment with Escherichia coli [6]; 2 µM (≈ 0.573 µg/mL) with Pseudomonas aeruginosa [7]; 32 µM (≈ 9.16 µg/mL) in the experiment with Pseudomonas aeruginosa [8]; 32 µM (≈ 9.16 µg/mL) with Acinetobacter baumannii; 64 µM (≈ 18.3 µg/mL) in the experiment on Candida albicans [9]. Also, the minimum inhibitory concentration (MIC) was determined as 128 µM (≈ 36.7 µg/mL) in the experiment with Candida albicans [10], 32 µM (≈ 9.16 µg/mL) with Candida tropicalis, 32 µM (≈ 9.16 µg/mL) in the experiment with Candida parapsilosis and 16 µM (≈ 4.58 µg/mL) in the experiment with Aspergillus fumigatus.

As to `C#CCN1C(=O)/C(=N\Nc2nccs2)c2ccccc21`, the MIC in the experiment on Staphylococcus aureus [1] worked out at 256 µM (≈ 72.3 µg/mL); in the experiment with Enterococcus faecalis, 256 µM (≈ 72.3 µg/mL); with Staphylococcus aureus [2], 256 µM (≈ 72.3 µg/mL); in the experiment on Staphylococcus aureus [3] it was 512 µM (≈ 145 µg/mL); in the experiment on Staphylococcus aureus [4], 512 µM (≈ 145 µg/mL); in the experiment on Klebsiella pneumoniae, 512 µM (≈ 145 µg/mL). Moreover, the MIC with Escherichia coli [5] was 512 µM (≈ 145 µg/mL); in the experiment on Escherichia coli [6], 512 µM (≈ 145 µg/mL); with Pseudomonas aeruginosa [7], 256 µM (≈ 72.3 µg/mL); in the experiment on Pseudomonas aeruginosa [8], 512 µM (≈ 145 µg/mL); in the experiment with Acinetobacter baumannii, 512 µM (≈ 145 µg/mL); in the experiment on Candida albicans [9] it was 256 µM (≈ 72.3 µg/mL). Also, the MIC with Candida albicans [10] came out at 256 µM (≈ 72.3 µg/mL); with Candida tropicalis it was 256 µM (≈ 72.3 µg/mL); in the experiment on Candida parapsilosis, 64 µM (≈ 18.1 µg/mL); in the experiment on Aspergillus fumigatus it was 64 µM (≈ 18.1 µg/mL).

Take `C=CCN1C(=O)/C(=N\Nc2nccs2)c2ccccc21`: the minimal inhibitory concentration (MIC) in the experiment on Staphylococcus aureus [1] was found to be 512 µM (≈ 146 µg/mL); in the experiment with Enterococcus faecalis it was 64 µM (≈ 18.2 µg/mL); with Staphylococcus aureus [2], 64 µM (≈ 18.2 µg/mL); in the experiment on Staphylococcus aureus [3], 128 µM (≈ 36.4 µg/mL); in the experiment on Staphylococcus aureus [4], 128 µM (≈ 36.4 µg/mL); with Klebsiella pneumoniae it was 256 µM (≈ 72.8 µg/mL). The MIC with Escherichia coli [5] came out at 64 µM (≈ 18.2 µg/mL); with Escherichia coli [6] it was 512 µM (≈ 146 µg/mL); in the experiment with Pseudomonas aeruginosa [7] it was 512 µM (≈ 146 µg/mL); in the experiment with Pseudomonas aeruginosa [8], 16 µM (≈ 4.55 µg/mL); with Acinetobacter baumannii, 512 µM (≈ 146 µg/mL); with Candida albicans [9], 256 µM (≈ 72.8 µg/mL). In addition, the MIC in the experiment on Candida albicans [10] is 512 µM (≈ 146 µg/mL); in the experiment on Candida tropicalis, 32 µM (≈ 9.1 µg/mL); in the experiment with Candida parapsilosis it was 128 µM (≈ 36.4 µg/mL); in the experiment with Aspergillus fumigatus it was 4 µM (≈ 1.14 µg/mL).

Consider `O=C1/C(=N\Nc2nccs2)c2ccccc2N1Cc1ccccc1F`, for which the minimum inhibitory concentration (MIC) is 8 µM (≈ 2.82 µg/mL) with Staphylococcus aureus [1]; 8 µM (≈ 2.82 µg/mL) with Enterococcus faecalis; 4 µM (≈ 1.41 µg/mL) in the experiment on Staphylococcus aureus [2]; 4 µM (≈ 1.41 µg/mL) in the experiment with Staphylococcus aureus [3]; 256 µM (≈ 90.2 µg/mL) with Staphylococcus aureus [4]; 512 µM (≈ 180 µg/mL) in the experiment with Klebsiella pneumoniae. Also, the MIC with Escherichia coli [5] was found to be 512 µM (≈ 180 µg/mL); in the experiment with Escherichia coli [6], 256 µM (≈ 90.2 µg/mL); with Pseudomonas aeruginosa [7], 256 µM (≈ 90.2 µg/mL); with Pseudomonas aeruginosa [8], 512 µM (≈ 180 µg/mL); in the experiment on Acinetobacter baumannii, 512 µM (≈ 180 µg/mL); in the experiment with Candida albicans [9], 64 µM (≈ 22.6 µg/mL). Also, the MIC is 128 µM (≈ 45.1 µg/mL) in the experiment with Candida albicans [10], 16 µM (≈ 5.64 µg/mL) in the experiment with Candida tropicalis, 128 µM (≈ 45.1 µg/mL) in the experiment with Candida parapsilosis and 128 µM (≈ 45.1 µg/mL) in the experiment with Aspergillus fumigatus.
